From patent US12544365B2, “Pharmaceutical combination of an EP4 antagonist and immune checkpoint inhibitors for the treatment of tumours” (ROTTAPHARM BIOTECH S.R.L., priority 2019, dated 2026)

How the values were obtained:
[1] = biological target: T1, rat EP4R (Rattus norvegicus, UniProt P43114); assay: Ex vivo TNF-α release induced by LPS in whole blood of orally dosed rats: PGE2 IC50 vs dose and time
T1 construct: whole blood culture samples from animals treated orally with vehicle or Compound 1; from tissue; host or cells: whole blood of male Wistar Han rats
T1 sequence (P43114 whole entry): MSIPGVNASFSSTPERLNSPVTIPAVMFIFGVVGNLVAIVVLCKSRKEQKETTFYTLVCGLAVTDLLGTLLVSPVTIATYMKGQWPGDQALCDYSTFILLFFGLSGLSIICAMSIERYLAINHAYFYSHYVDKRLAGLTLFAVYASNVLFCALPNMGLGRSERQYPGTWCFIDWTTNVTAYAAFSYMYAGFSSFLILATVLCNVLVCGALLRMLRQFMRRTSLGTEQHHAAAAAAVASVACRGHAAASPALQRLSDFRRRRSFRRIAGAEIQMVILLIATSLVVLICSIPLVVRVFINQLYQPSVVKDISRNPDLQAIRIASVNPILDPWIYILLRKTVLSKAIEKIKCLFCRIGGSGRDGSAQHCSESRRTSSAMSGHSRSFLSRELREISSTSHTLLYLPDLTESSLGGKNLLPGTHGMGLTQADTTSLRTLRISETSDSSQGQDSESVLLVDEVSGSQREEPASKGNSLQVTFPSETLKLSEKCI
Experimental: Male Wistar Han rats (250-300 g b.w., Charles River, Italy) were housed six per cage in a temperature controlled room, set to maintain temperature within the range of 20° C. ±2° C. and relative humidity within the range of 55%+10 and with a 12-h/12-h light/dark cycle. Throughout the study animals had free access to standard laboratory chow (Teklad rodent diet 2018, Harlan Laboratories, S. Pietro al Natisone, UD, Italy) and drinking water. Care and handling of the animals were in accordance with the guidelines of the Local Government and the regulations of the European Community.
Authorization for experimental procedures was granted by the Italian Ministry of Health. […]
In details the day of the experiments, animals were anaesthetized with 2.5-3% isoflurane in O2 inside an induction chamber and blood (in average 7 ml/rat) was drawn from the abdominal aorta. […] Compared to the reference standard curve, TNF-α levels in samples were expressed as concentration (pg/ml).
For each animal, percent of inhibition by different PGE2 concentrations with respect to control sample, and the corresponding IC50 (or the half-maximal inhibitory concentration in a range 0-100% inhibition) were calculated by linear regression analysis. Moreover, in each treatment group either the mean TNF-α levels and the mean % inhibition by PGE2 were calculated. […]

[2] = tested on: Treg differentiation of human CD4+ naïve T cells; assay: Ex vivo human T regulatory cells differentiation (flow cytometry); type: cell-based; conditions: 0.1 μM compound, 0.03 μM PGE2, 144 hours
Experimental: Peripheral blood mononuclear cells (PBMC) were isolated from healthy volunteers using density gradient centrifugation and CD4+naïve T cells were enriched from PBMCs using human naïve CD4+ T cell isolation kit (Miltenyi Biotech). Isolated CD4+ T cells were maintained in RPMI medium and differentiated toward a Treg phenotype using two interleukins, namely, rIL23 and rIL-1B, both at a concentration of 10 ng/ml and co-stimulated with PGE2 at 30 nM concentration over a 144 hours incubation period.
At the end of incubation cells were stained with fluorescence conjugated antibodies specific for CD3, CD4, FoxP3, CD25, IL35 and CRTH2 (all from BD Bioscience). Finally, the number of Treg cells was determined by flow cytometry and the events were measured by Fluorescence Activated Cell Sorter (FACS; BD Bioscience) and analyzed with dedicated software.

In the case of `O=C([O-])c1ccc(C2(NC(=O)[C@H]3CC4(CCN3Cc3ccc(C(F)(F)F)cc3)CC4)CC2)cc1.[Na+]` [Compound 1, sodium (R)-4-(1-(6-(4-(trifluoromethyl)benzyl)-6-azaspiro[2.5]octane-5-carboxamido)cyclopropyl)benzoate], the “reversion of PGE2 TNF-α release inhibition, time course” value ([1]; 10 mg/kg oral, blood sampling 1-3-24 hours) is reported as “still evident also 24 hours after Compound 1 administration”, the minimum effective dose ([1]; oral, rat, reversion of PGE2 inhibition of TNF-α release) is reported as 10 mg/kg and the Treg cell differentiation [2] is reported as “significantly decreased”.
